{"source": "patent US20100004171A1", "about": "“Therapeutic Methods for Neuropathic Pain” (priority 2006, published 2010)", "key": {"[1]": {"test_system": "agrin mRNA", "test": "RT-PCR of agrin gene expression (C-terminal primers) in L3-5 spinal cord", "assay_type": "in vivo, rat", "procedure": "Gene expression alterations after the nerve injury: Gene expression for amino(“N”)- and carboxy(“C”)-terminal halves of agrin was analyzed from L3-5 spinal cord of the rats (sacrificed at 2 hr, 24 hr, 3 days, and 7 days post surgery), using RT-PCR and real-time PCR. The differences in gene expression between sham-operated and nerve-injured groups were compared.\nTotal RNA extraction: The rats were deeply anesthetized with isoflurane and decapitated. The spinal cord from L3-5 was quickly removed and immediately put into a tube containing TRIzol® (2 ml, Invitrogen, Carlsbad, Calif.). The tissue was homogenized with IKA® T8 homogenizer (IKA®, Staufen, Germany) for 2 min, allowed to stand at room temperature for 3 min, and 0.4 ml chloroform added. The tube was vortexed and centrifuged at 12,000×g for 15 min. The water phase was transferred to a clean tube without any contamination from other phases. Then 1 ml isopropanol was added to the water phase, and the mixture allowed to stand for 10 min at room temperature. The tube was centrifuged for 10 min at 12,000×g. The supernatant was discarded, and the pellet washed with 1 ml 70% ethanol. The ethanol was discarded, and the RNA was re-dissolved in 30 μl nucleotide-free water. A 1 μl aliquot was taken and reserved to dilute 20-fold for RNA quality control. […]\n[…]. Changes in agrin gene induced by the injected drug was analyzed and compared."}, "[2]": {"test_system": "tactile allodynia in allodynic rats", "test": "Tactile allodynia test (von Frey filaments, paw withdrawal threshold) in CCI (Bennett model) rats", "assay_type": "in vivo, rat", "source_text": "Bennett Model: In this model, approximately 0.8 cm of the left sciatic nerve was exposed and freed with sharpened scissors at middle-thigh level as described by Bennett and Xie.^[76] Four ligatures were placed loosely around the sciatic nerve with 4-0 chromic catgut, with 1 mm space between the ties, which compresses the nerve but epineural blood circulation is preserved. The tissue and skin were closed in layers. […] Most allodynia was seen during the time period of 7-14 days after the surgery.\nIntrathecal catheter installation: A PE10 catheter, stretched to a somewhat thinner diameter in the distal part, was introduced into the spinal canal (subarachnoid space) via a 21 G (gauge) cannula between the L5 and L6 lamina and advanced to the lumbar enlargement in rats. The proximal part was tunneled under the skin and led out on the upper dorsal region. The location of the catheter was verified by the injection of 6 μl (50 mg/ml) xylocalne, such that a transient, flaccid paralysis of the legs was produced, and by X-ray after administration of 10 μl iodine contrast medium (Astra, Sweden). The catheter could be kept for up to two weeks in animals.^[79]\nThe maximum volume injected at any one time was 10 μl.^[79]\nTactile allodynia test: In a transparent glass chamber (20×20 cm) with a mesh net floor, each animal was subjected to the tactile allodynia test. A positive response is when an innocuous tactile stimulus induces a brief paw withdrawal away from the stimulation, similar to a paw withdrawal due to heat. A set of von Frey filaments from 0.01 to 28 g (Stoelting Co., Wood Dale, Ill.) were applied to the mid-paw of the allodynic rats at 1 gram, and then progressing up or down. The filament was pressed against the plantar surface for 1 to 2 seconds until it bent. Subsequent applications were made with a higher or lower von Frey filament depending on the animal response. The testing always began with normal paws. If a filament induced a brief paw withdrawal of a paw without bending in three out of five tests, the size of the filament was recorded as eliciting a positive withdrawal threshold.^[80] Allodynia was considered to be present when a withdrawal threshold was evoked by a filament corresponding to 8 grams or less.\nIn rats with tactile allodynia (a withdrawal threshold with a filament below 8 g), an intrathecal catheter (PE 10) was installed and linked to an osmotic pump (Alzet) in a 37° C. water bath. Following a bolus injection of SCP-1 (30 nmol/kg, 10 μl), agrin siRNA (100 nM) was intrathecally administered continuously by the pump at a rate of 5 μl/1 hour for 4 hr. The animals were subjected to von Frey filament test every 15 min for 4 hr to determine whether the effects of SCP-1 on allodynia suppression are blocked by agrin siRNA. A control siRNA (nFsiRNA) was applied in the same way. The behavioral data was analyzed for agrin effects. Immediately after behavioral experiments, the animals were sacrificed and subjected to protein extraction of lumbar spinal cord, followed by Western-blot analysis as described above.\nA blind test was designed for intrathecal drug evaluations. Five days after CCI, rats were subjected to tactile allodynia tests with von Frey filaments. If a filament corresponding to 8 grams or less evoked a withdrawal response on the rat paw (at least 3 responses out of 5 stimuli), the value was designated as the allodynia threshold. […] Either a drug (100 nmol in 10 μl saline) or vehicle (only 10 μl saline) was pre-warmed and intrathecally injected into the allodynic rats. Then the rats were assayed for changes in allodynic and hyperalgesic behavior, agrin gene expression, and agrin protein changes. In addition, distribution and amount of agrin in the dorsal horn were visualized using immunostaining of L5 as reported above in Example 7."}, "[3]": {"test_system": "nociceptive pain", "details": "cited from earlier work"}}}
{"smiles": "O=C(CN1C(=O)c2ccccc2S1(=O)=O)Nc1ccc(O)cc1", "note": "[SCP-1]", "values": [{"measurement": "agrin mRNA", "setting": "[1]; allodynic rats, intrathecal injection 7 days post injury, one- and two-hour post injection", "result": "increased"}, {"measurement": "agrin mRNA", "setting": "[1]; pre-emptive intrathecal injection prior to CCI, 3 and 7 days post-injury", "result": "did not show a decrease in agrin mRNA"}, {"measurement": "time to normalized withdrawal threshold", "setting": "[2]; Example 9: SCP-1 alone", "result": "about one hour after injection"}, {"measurement": "effect on withdrawal threshold", "setting": "[2]; Example 9: injected 7 days after CCI, SCP-1 alone, up to 4 h", "result": "normalized the withdrawal threshold"}, {"measurement": "duration of effect on withdrawal threshold", "setting": "[2]; intrathecal 100 nmol in 10 μl", "result": "up to 8 hr"}, {"measurement": "time to normal withdrawal threshold", "setting": "[2]; intrathecal 100 nmol in 10 μl", "result": "about an hour after injection"}, {"measurement": "effect on paw-withdrawal threshold", "setting": "[2]; intrathecal 100 nmol in 10 μl in allodynic rats, day 7 after injury, up to 8 hr", "result": "raised the withdrawal threshold to normal values"}, {"measurement": "effect on tactile allodynia", "setting": "[2]; intrathecal 100 nmol, day 7 after injury", "result": "suppressed the tactile allodynia"}, {"measurement": "effect on nociceptive pain", "setting": "[3]; formalin- and CFA-induced, rodent models, without any toxicity", "result": "suppressed formalin- and CFA-induced nociceptive pain"}, {"measurement": "acute liver or kidney toxicity", "setting": "[3]; while relieving nociceptive pain", "result": "without acute liver or kidney toxicity"}]}
